Data taken from US20110034441A1, “INDAZOLES AS WNT/B-CATENIN SIGNALING PATHWAY INHIBITORS AND THERAPEUTIC USES THEREOF” (EPITHERIX, LLC, priority 2009, published 2011).

System: Wnt
Test: Wnt reporter screening assay: SP5 promoter (TCF/LEF) firefly luciferase in SW480 cells
Format: cell-based
Conditions: Homo sapiens; SW480 colon cancer cells with SP5 promoter luciferase reporter; 24 hours after compound addition; normalized to DMSO; read-out: Wnt inhibition, IC50
From the text: Another screening assay for Wnt activity is described as follows. Reporter cell lines can be generated by stably transducing cells of cancer cell lines (e.g., colon cancer) with a lentiviral construct that include a wnt-responsive promoter driving expression of the firefly luciferase gene.
Lentiviral constructs can be made in which the SP5 promoter, a promoter having eight TCF/LEF binding sites derived from the SP5 promoter, is linked upstream of the firefly luciferase gene. The lentiviral constructs can also include a hygromycin resistance gene as a selectable marker. The SP5 promoter construct can be used to transduce SW480 cells, a colon cancer cell line having a mutated APC gene that generates a truncated APC protein, leading to de-regulated accumulation of β-catenin.
Cultured SW480 cells bearing a reporter construct can be distributed at approximately 10,000 cells per well into 384 well multiwell plates. Compounds from a small molecule compound library can then be added to the wells in half-log dilutions using a three micromolar top concentration. A series of control wells for each cell type receive only buffer and compound solvent. Twenty-four hours after the addition of compound, reporter activity for luciferases can be assayed, for example, by addition of the BrightGlo luminescence reagent (Promega) and the Victor3 plate reader (Perkin Elmer). Readings can be normalized to DMSO only treated cells, and normalized activities can then be used in the IC50 calculations.

**Q.** With `NC(=O)c1ccc2[nH]nc(-c3nc4ccccc4[nH]3)c2c1` [Compound 28, 3-(1H-benzo[d]imidazol-2-yl)-1H-indazole-5-carboxamide] as the compound, how does the IC50 read?
**A.** 1 µM
